# Test results reported in ChEMBL document CHEMBL1201862, “PubChem BioAssay data set” (2004).
#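 Briefly, cells in 96-well plates were exposed to five compound concentrations for 48 h, and endpoints were estimated by linear interpolation. GI50 = concentration required for 50% inhibition of growth.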 Calls of active or inactive are those of the source. No stated cut-off is given here; in the data, active = GI50 up to about 1.1 µM and inactive = higher.
# How the values were obtained:
# Assay in all cases: DTP human tumour cell line panel, 48 h
# 786-0 = test system: 786-0
# A549 = test system: A549
# ACHN = test system: ACHN
# BT-549 = test system: BT-549
# CAKI-1 = test system: CAKI-1
# CCRF-CEM = test system: CCRF-CEM
# COLO 205 = test system: COLO 205
# DU-145 = test system: DU-145
# EKVX = test system: EKVX
# HCC 2998 = test system: HCC 2998
# HCT-116 = test system: HCT-116
# HCT-15 = test system: HCT-15
# HL-60 = test system: HL-60
# HOP-62 = test system: HOP-62
# HOP-92 = test system: HOP-92
# HT-29 = test system: HT-29
# Hs-578T = test system: Hs-578T
# IGROV-1 = test system: IGROV-1
# K562 = test system: K562
# KM12 = test system: KM12
# LOX IMVI = test system: LOX IMVI
# M14 = test system: M14
# MCF7 = test system: MCF7
# MDA-MB-231 = test system: MDA-MB-231
# MDA-MB-435 = test system: MDA-MB-435
# MDA-N = test system: MDA-N
# MOLT-4 = test system: MOLT-4
# Malme-3M = test system: Malme-3M
# NCI-H226 = test system: NCI-H226
# NCI-H23 = test system: NCI-H23
# NCI-H460 = test system: NCI-H460
# NCI-H522 = test system: NCI-H522
# NCI/ADR-RES = test system: NCI/ADR-RES
# OVCAR-3 = test system: OVCAR-3
# OVCAR-4 = test system: OVCAR-4
# OVCAR-5 = test system: OVCAR-5
# OVCAR-8 = test system: OVCAR-8
# PC-3 = test system: PC-3
# RPMI-8226 = test system: RPMI-8226
# SF-268 = test system: SF-268
# SF-295 = test system: SF-295
# SF-539 = test system: SF-539
# SK-MEL-28 = test system: SK-MEL-28
# SK-MEL-2 = test system: SK-MEL-2
# SK-OV-3 = test system: SK-OV-3
# SN12C = test system: SN12C
# SNB-19 = test system: SNB-19
# SNB-75 = test system: SNB-75
# SR = test system: SR
# SW-620 = test system: SW-620
# TK-10 = test system: TK-10
# U-251 = test system: U-251
# UACC-257 = test system: UACC-257
# UACC-62 = test system: UACC-62
# UO-31 = test system: UO-31
smiles,measurement,setting,value
O=C(CNc1ccccn1)Nn1cnc2ccc(S(=O)(=O)Nc3ccccn3)cc2c1=O,GI50,786-0,> 100 µM (inactive)
same,GI50,A549,> 100 µM (inactive)
same,GI50,ACHN,> 100 µM (inactive)
same,GI50,BT-549,> 100 µM (inactive)
same,GI50,CAKI-1,> 100 µM (inactive)
same,GI50,CCRF-CEM,> 100 µM (inactive)
same,GI50,COLO 205,> 100 µM (inactive)
same,GI50,DU-145,> 100 µM (inactive)
same,GI50,EKVX,> 100 µM (inactive)
same,GI50,HCC 2998,> 100 µM (inactive)
same,GI50,HCT-116,> 100 µM (inactive)
same,GI50,HCT-15,> 100 µM
same,GI50,HL-60,> 100 µM (inactive)
same,GI50,HOP-62,> 100 µM (inactive)
same,GI50,HOP-92,> 100 µM (inactive)
same,GI50,HT-29,> 100 µM (inactive)
same,GI50,Hs-578T,> 100 µM (inactive)
same,GI50,IGROV-1,70.1 µM (inactive)
same,GI50,K562,> 100 µM (inactive)
same,GI50,KM12,> 100 µM (inactive)
same,GI50,LOX IMVI,> 100 µM (inactive)
same,GI50,M14,> 100 µM (inactive)
same,GI50,MCF7,> 100 µM (inactive)
same,GI50,MDA-MB-231,> 100 µM (inactive)
same,GI50,MDA-MB-435,> 100 µM (inactive)
same,GI50,MDA-N,> 100 µM (inactive)
same,GI50,MOLT-4,> 100 µM (inactive)
same,GI50,Malme-3M,> 100 µM (inactive)
same,GI50,NCI-H226,> 100 µM (inactive)
same,GI50,NCI-H23,> 100 µM (inactive)
same,GI50,NCI-H460,> 100 µM (inactive)
same,GI50,NCI-H522,> 100 µM (inactive)
same,GI50,NCI/ADR-RES,> 100 µM (inactive)
same,GI50,OVCAR-3,> 100 µM (inactive)
same,GI50,OVCAR-4,> 100 µM (inactive)
same,GI50,OVCAR-5,> 100 µM (inactive)
same,GI50,OVCAR-8,> 100 µM (inactive)
same,GI50,PC-3,> 100 µM (inactive)
same,GI50,RPMI-8226,> 100 µM (inactive)
same,GI50,SF-268,> 100 µM (inactive)
same,GI50,SF-295,> 100 µM (inactive)
same,GI50,SF-539,> 100 µM (inactive)
same,GI50,SK-MEL-28,> 100 µM (inactive)
same,GI50,SK-MEL-2,> 100 µM (inactive)
same,GI50,SK-OV-3,> 100 µM (inactive)
same,GI50,SN12C,> 100 µM (inactive)
same,GI50,SNB-19,> 100 µM (inactive)
same,GI50,SNB-75,> 100 µM (inactive)
same,GI50,SR,> 100 µM (inactive)
same,GI50,SW-620,> 100 µM (inactive)
same,GI50,TK-10,> 100 µM (inactive)
same,GI50,U-251,> 100 µM (inactive)
same,GI50,UACC-257,> 100 µM (inactive)
same,GI50,UACC-62,> 100 µM (inactive)
same,GI50,UO-31,> 100 µM (inactive)
